Data as given in patent US8546079B2, “Reporter gene construct, assay kit and detection method” (Kabushiki Kaisha Toshiba, priority 2010, dated 2013).

System: enhancer region of cytochrome 1A1 gene
Assay: Detection of nitrogen monoxide (NO.) having responded to carcinogenicity by iNOS vector pXRE-SV40-NOS2 (DAF2-DA fluorescence)
Type: cell-based, mouse
Conditions: Neuro2a transfected with pXRE-SV40-NOS2; 1.0 μM, 24 hours; compared with DMSO; inverted fluorescence microscope (FIG. 3A, 3B)
Source text: An enhancer region responsive to a carcinogenic substance was incorporated in the iNOS vector: pSV40-NOS2. The enhancer region of cytochrome 1A1 gene responsive to a carcinogenic substance (benzopyrene) (SEQ ID NO: 4) was amplified by PCR from a mouse genome. The 5′ terminal of the amplified enhancer region was phosphorylated with T4 polynucleotide kinase, and ligated using T4 ligase to pSV40-NOS2 having been digested with restriction enzyme Sma I and having its 5′ terminal dephosphorylated with alkali phosphatase, thereby obtaining pXRE-SV40-NOS2 (FIG. 2). Using this vector, the correlation of the activation of the enhancer region by a carcinogenic substance with the amount of nitrogen monoxide (NO.) synthesized by iNOS was studied.
Mouse neuroblastoma Neuro2a (American Type Cell Culture) was seeded on a 24-well plate at a density of 8.0×10^4 cells/well, and using DMEM/F12 medium (DF1:1 medium) supplemented with 10% fetal calf serum (FCS), cultured overnight in a 5% CO2 atmosphere at 37° C. […] Two hours later, the cells were washed with phosphate buffer (PBS) twice, and the fluorescence by the reaction product of DAF-2DA and nitrogen monoxide (NO.) (DAF-2T, excitation wavelength: 495 nm, fluorescence wavelength: 515 nm) was observed by means of an inverted fluorescence microscope.

c1ccc2c(c1)c1cccc3ccc4cccc2c4c31 [benzopyrene]
fluorescence by the reaction product of DAF-2DA and nitrogen monoxide (NO.): induction of fluorescence
